Source: patent US11673323B2, “Fluorescent binders for use in monitoring additive manufacturing processes” (General Electric Company, priority 2020, dated 2023)
“Also recorded” adds a separate entry of the source.

Experiment: Solubility of neat fluorescent dye in water-based PVA/PAA binder solution
Settings: 0.5 wt % fluorescent dye in binder solution (PVA, PAA, ethylene glycol, ethylene glycol butyl ether, water), stirred at 50-70° C.
Experimental: To determine whether neat dyes (e.g., unencapsulated) could be incorporated into binder solutions, various fluorescent materials were added to a binder solution including 1-7 wt % PVA, 0.5-3 wt % PAA, 2-6 wt % ethylene glycol, 4-10 wt % ethylene glycol butyl ether, and the balance water to form Samples F-H, and Comparative Samples 1-5. In particular, from 0.2-0.5 wt % of the fluorescent material (DayGlo, UMCCorp, Aldrich) was added to the binder solution and stirred on a hot plate at 50-70° C. to dissolve the dye into the binder solution.

Solubility at 0.5 wt %	Compound	Solubility at 0.5 wt % (listed as Sample H)
Partially soluble −	CCCN(CCO)c1nc(Nc2ccccc2)nc(Nc2ccc(/C=C/c3ccc(Nc4nc(Nc5ccccc5)nc(N(CCO)CCO)n4)cc3S(=O)(=O)[O-])c(S(=O)(=O)[O-])c2)n1.[Na+].[Na+] [FB 28]	
Partially soluble −	O=S(=O)([O-])c1cc(Nc2nc(CCO)nc(Nc3ccccc3)n2)ccc1/C=C/c1ccc(Nc2nc(NCO)nc(Nc3ccccc3)n2)cc1S(=O)(=O)[O-].[Na+].[Na+] [FB 85]	
Partially soluble −	CCCN(CCC)c1nc(Nc2ccccc2)nc(Nc2ccc(/C=C/c3ccc(Cc4nc(Cc5ccccc5)nc(N(OCC)OCC)n4)cc3S(=O)(=O)[O-])c(S(=O)(=O)[O-])c2)n1.[Na+].[Na+] [FB 113]	

Compound	Solubility at 0.5 wt %	Solubility at 0.5 wt % (listed as Sample H)
O=S(=O)([O-])c1ccccc1C=Cc1ccc(-c2ccc(C=Cc3ccccc3S(=O)(=O)[O-])cc2)cc1.[Na+].[Na+] [FB 351]	Soluble	fully soluble; also recorded: good solubility
